Source: patent publication US12459951B2, “Compounds that interact with RAS superfamily proteins for treatment of cancers, inflammatory diseases, rasopathies, and fibrotic disease” (SHY Therapeutics, LLC, priority 2022, dated 2025)

Columns and labels:
[1] = test system: Smad2/Smad3 phosphorylation; experiment: Phospho-Smad2/3 Inhibition Assay (western blot), Panc-1; type: cell-based, human; conditions: at 10 μM, Panc-1 pancreatic cancer cell line; starred symbols = activation
Procedure, shortened: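 Panc-1 cells (KRas G12D), starved overnight in 0.5% FBS, treated 3 h at 37° C with compound at 10 μM final (0.3% DMSO) or serial dilutions for IC50, then stimulated with 10 ng/ml TGF-b1 for 1 h. Phospho-Smad2 (Ser465/467) and phospho-Smad3 (Ser423/425) detected by western blot.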

[2] = test system: Erk1/2 phosphorylation; experiment: Erk1/2 Phosphorylation Assay (western blot), Panc-1; type: cell-based, human; conditions: at 10 μM, * = activation
Procedure, shortened: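 KRas G12D Panc-1 cells were treated 6 h at 37° C with compound at 10 μM or serial dilutions for IC50 (0.3% DMSO). In method 1, cells were serum-starved overnight (0.5% FBS) and then given 1.5 ng/ml EGF for 15 min. In method 2, cells stayed in 10% FBS without stimulation. Lysate phospho-Erk1/2 (Thr202/Tyr204) was read by western blot.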

Row | SMILES | % inh of Smad2/3 phosphorylation in Panc-1 [1] | % inh of Erk1/2 phosphorylation in Panc-1 [2]
1 | Cc1c(-c2ccn(C3CC3)n2)cn2nc(-c3nccn3C)nc(Nc3cc(OCCCN(C)C)ccn3)c12 [Compound 148, 6-(1-Cyclopropyl-1H-pyrazol-3-yl)-N-(4-(3-(dimethylamino)propoxy)pyridin-2-yl)-5-methyl-2-(1-methyl-1H-imidazol-2-yl)pyrrolo[2,1-f][1,2,4]triazin-4-amine] | A (A = 1-25% inhibition) | C* (46-84% activation)
2 | Cc1c(-c2ccn(C3CC3)n2)cn2nc(-c3nccn3C)nc(Nc3cc(OCCCO)ccn3)c12 [Compound 149, 3-((2-((6-(1-Cyclopropyl-1H-pyrazol-3-yl)-5-methyl-2-(1-methyl-1H-imidazol-2-yl)pyrrolo[2,1-f][1,2,4]triazin-4-yl)amino)pyridin-4-yl)oxy)propan-1-ol] | A (A = 1-25% inhibition) | D* (85-100% activation)
3 | Cc1c(-c2ccn(C3CC3)n2)cn2nc(-c3nccn3C)nc(Nc3cc(O)ccn3)c12 [Compound 150, 2-((6-(1-Cyclopropyl-1H-pyrazol-3-yl)-5-methyl-2-(1-methyl-1H-imidazol-2-yl)pyrrolo[2,1-f][1,2,4]triazin-4-yl)amino)pyridin-4-ol] | A (A = 1-25% inhibition) | A (1-25% inhibition)
4 | CO[C@H]1C[C@H](Nc2nc(-c3nccn3C)nn3cc(-c4cccnc4)c(C)c23)C1 [Compound 151, N-((1r,3r)-3-Methoxycyclobutyl)-5-methyl-2-(1-methyl-1H-imidazol-2-yl)-6-(pyridin-3-yl)pyrrolo[2,1-f][1,2,4]triazin-4-amine] | A (A = 1-25% inhibition) | D* (85-100% activation)
5 | COCCO[C@H]1C[C@H](Nc2nc(-c3nccn3C)nn3cc(-c4cccnc4)c(C)c23)C1 [Compound 152, N-((1r,3r)-3-(2-methoxyethoxy)cyclo-butyl)-5-methyl-2-(1-methyl-1H-imidazol-2-yl)-6-(pyridin-3-yl)pyrrolo[2,1-f][1,2,4]triazin-4-amine] | A (A = 1-25% inhibition) | B* (26-49% activation)
6 | CO[C@H]1C[C@@H](Nc2nc(-c3nccn3C)nn3cc(-c4cccnc4)c(C)c23)C1 [Compound 153, N-((1s,3s)-3-methoxy-cyclobutyl)-5-methyl-2-(1-methyl-1H-imidazol-2-yl)-6-(pyridin-3-yl)pyrrolo[2,1-f][1,2,4]triazin-4-amine] | C (C = 46-75% inhibition) | A (1-25% inhibition)
7 | Cc1c(-c2cccnc2)cn2nc(-c3nccn3C)nc(Nc3ccncn3)c12 [Compound 156, 5-Methyl-2-(1-methyl-1H-imidazol-2-yl)-6-(pyridin-3-yl)-N-(pyrimidin-4-yl)pyrrolo[2,1-f][1,2,4]triazin-4-amine] | D (D = 76-100% inhibition) | D* (85-100% activation)
8 | COc1ccnc(Nc2nc(-c3nccn3C)nn3cc(-c4cccnc4)c(C)c23)c1 [Compound 157, N-(4-Methoxy-pyridin-2-yl)-5-methyl-2-(1-methyl-1H-imidazol-2-yl)-6-(pyridin-3-yl)pyrrolo[2,1-f][1,2,4]triazin-4-amine] | B* (B* = 26-45% activation) | C* (46-84% activation)
9 | COc1ccnc(Nc2nc(-c3nccn3C)nn3cc(-c4cccnc4)c(C)c23)n1 [Compound 158, N-(4-Methoxy-pyrimidin-2-yl)-5-methyl-2-(1-methyl-1H-imidazol-2-yl)-6-(pyridin-3-yl)pyrrolo[2,1-f][1,2,4]triazin-4-amine] | B* (B* = 26-45% activation) | A (1-25% inhibition)
10 | CO[C@H]1C[C@H](Nc2nc(-c3nccn3C)nn3cc(-c4ccncc4)c(C)c23)C1 [Compound 159, N-((1r,3r)-3-Methoxycyclobutyl)-5-methyl-2-(1-methyl-1H-imidazol-2-yl)-6-(pyridin-4-yl)pyrrolo[2,1-f][1,2,4]triazin-4-amine] | C (C = 46-75% inhibition) | A (1-25% inhibition)
11 | COc1cc(-c2cn3nc(-c4nccn4C)nc(N[C@H]4C[C@H](OC)C4)c3c2C)ccn1 [Compound 160, N-((1r,3r)-3-Methoxycyclobutyl)-6-(2-methoxypyridin-4-yl)-5-methyl-2-(1-methyl-1H-imidazol-2-yl)pyrrolo[2,1-f][1,2,4]triazin-4-amine] | A* (A* = 1-25% activation) | A* (1-25% activation)
12 | COCCO[C@H]1C[C@H](Nc2nc(-c3nccn3C)nn3cc(-c4ccnc(OC)c4)c(C)c23)C1 [Compound 161, N-((1r,3r)-3-(2-Methoxy-ethoxy)cyclo-butyl)-6-(2-methoxy-pyridin-4-yl)-5-methyl-2-(1-methyl-1H-imidazol-2-yl)pyrrolo[2,1-f][1,2,4]triazin-4-amine] | B (B = 26-45% inhibition) | A (1-25% inhibition)
13 | COc1cc(-c2cn3nc(-c4nccn4C)nc(N[C@H]4C[C@@H](OC)C4)c3c2C)ccn1 [Compound 162, N-((1s,3s)-3-Methoxycyclobutyl)-6-(2-methoxypyridin-4-yl)-5-methyl-2-(1-methyl-1H-imidazol-2-yl)pyrrolo[2,1-f][1,2,4]triazin-4-amine] | A (A = 1-25% inhibition) | A (1-25% inhibition)
14 | COc1ccnc(Nc2nc(-c3nccn3C)nn3cc(-c4cnn(C(C)C)c4)c(C)c23)c1 [Compound 165, 6-(1-Isopropyl-1H-pyrazol-4-yl)-N-(4-methoxypyridin-2-yl)-5-methyl-2-(1-methyl-1H-imidazol-2-yl)pyrrolo[2,1-f][1,2,4]triazin-4-amine] | B* (B* = 26-45% activation) | C* (46-84% activation)
15 | COc1ccnc(Nc2nc(-c3nccn3C)nn3cc(-c4cccnc4)c(-c4ccccn4)c23)c1 [Compound 166, N-(4-Methoxypyridin-2-yl)-2-(1-methyl-1H-imidazol-2-yl)-5-(pyridin-2-yl)-6-(pyridin-3-yl)pyrrolo[2,1-f][1,2,4]triazin-4-amine] | C* (C* = 46-75% activation) | B* (26-49% activation)
16 | COc1cc(Nc2nc(-c3nccn3C)nn3cc(-c4cccnc4)c(-c4ccccn4)c23)ncn1 [Compound 167, N-(6-Methoxypyrimidin-4-yl)-2-(1-methyl-1H-imidazol-2-yl)-5-(pyridin-2-yl)-6-(pyridin-3-yl)pyrrolo[2,1-f][1,2,4]triazin-4-amine] | 0 (0 = 0% inhibition) | A (1-25% inhibition)
17 | CO[C@H]1C[C@H](Nc2nc(-c3nccn3C)nn3cc(-c4cccnc4)c(-c4ccccn4)c23)C1 [Compound 168, N-((1r,3r)-3-Methoxycyclobutyl)-2-(1-methyl-1H-imidazol-2-yl)-5-(pyridin-2-yl)-6-(pyridin-3-yl)pyrrolo[2,1-f][1,2,4]triazin-4-amine] | A* (A* = 1-25% activation) | 0 (0% inhibition)
18 | COc1ccnc(Nc2nc(-c3nccn3C)nn3cc(-c4cccnc4)c(-c4cccnc4)c23)c1 [Compound 169, N-(4-methoxypyridin-2-yl)-2-(1-methyl-1H-imidazol-2-yl)-5,6-di(pyridin-3-yl)pyrrolo[2,1-f][1,2,4]triazin-4-amine] | C (C = 46-75% inhibition) | B* (26-49% activation)
